We go through two compounds from patent US10131659B2, “Iodonium analogs as inhibitors of NADPH oxidases and other flavin dehydrogenases; formulations thereof; and uses thereof” (priority 2014, dated 2018).

One data set has as its target T1, NOX5 (Homo sapiens, UniProt Q96PH1).
T1 sequence (Q96PH1 1-765): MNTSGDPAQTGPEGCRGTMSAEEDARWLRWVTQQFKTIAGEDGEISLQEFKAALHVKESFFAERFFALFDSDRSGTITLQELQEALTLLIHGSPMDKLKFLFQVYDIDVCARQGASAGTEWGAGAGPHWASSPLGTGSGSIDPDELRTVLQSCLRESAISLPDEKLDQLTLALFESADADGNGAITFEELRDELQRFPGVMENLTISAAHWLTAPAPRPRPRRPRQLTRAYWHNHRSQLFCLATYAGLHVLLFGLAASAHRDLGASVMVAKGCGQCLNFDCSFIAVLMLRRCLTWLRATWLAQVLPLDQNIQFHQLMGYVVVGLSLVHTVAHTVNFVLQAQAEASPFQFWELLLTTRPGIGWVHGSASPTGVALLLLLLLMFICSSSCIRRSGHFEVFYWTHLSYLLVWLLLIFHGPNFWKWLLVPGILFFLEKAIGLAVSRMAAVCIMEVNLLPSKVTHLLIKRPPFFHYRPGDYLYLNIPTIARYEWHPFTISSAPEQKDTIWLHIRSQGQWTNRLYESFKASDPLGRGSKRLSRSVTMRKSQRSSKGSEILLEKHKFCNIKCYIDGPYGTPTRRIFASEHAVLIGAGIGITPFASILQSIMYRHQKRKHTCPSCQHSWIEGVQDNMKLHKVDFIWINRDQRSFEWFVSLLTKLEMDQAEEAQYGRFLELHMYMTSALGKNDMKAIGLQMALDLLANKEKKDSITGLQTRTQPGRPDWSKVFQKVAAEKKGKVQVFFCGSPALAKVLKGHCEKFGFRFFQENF
The data set is described as follows: NOX5-dependent ROS production, luminescence assay for O2.- in UACC257 melanoma cells. In kind it is cell-based. The note with it: 3-5 independent experiments; exposure for 30 min; read-out: IC50 ± SE, NOX5 UACC-257.

The subject of data set [1] is HT-29 human colon cancer cells. The data set is described as follows: Clonogenic assay, HT-29 cells. In kind it is cell-based. The note with it: for IC50: Homo sapiens. The protocol:
Several iodonium analog compounds were analyzed for inhibition of HT-29 growth using a clonogenic assay performed as described in Doroshow et al Biochem. Biophys. Res. Commun. 135: 330-335, 1986.

The target of another data set is T2, NOX2 (Homo sapiens, UniProt P04839).
T2 construct: fully differentiated HL-60 cells expressing active NOX2; endogenous in cells; host or cells: differentiated HL-60
Briefly: NOX2-dependent ROS production, luminescence assay for O2.- in differentiated HL-60 cells. In kind it is cell-based. The note with it: 3-5 independent experiments; exposure for 30 min; read-out: IC50 ± SE, NOX2 HL-60.

The target in the next data set is T3, NOX1/A1/O1 (Homo sapiens, UniProt Q9Y5S8).
T3 construct: expressed in transfected cells; host or cells: HEK293
The data set is described as follows: NOX1-dependent ROS production, luminescence assay for O2.- in HEK293 cells expressing the NOX1 complex. In kind it is cell-based. The note with it: 3-5 independent experiments; exposure for 30 min; read-out: IC50 ± SE, NOX1/A1/O1 HEK 293.

Data set [2] deals with NOX1, NOX2, NOX4, NOX5, and DUOX2. The data set is described as follows: Screening for NADPH oxidase isoform specificity in cellular models (all isoforms). Format: cell-based, human. As to the method:
To evaluate compound specificity, a luminescence assay for O2.^− was used with HEK293 cells expressing all components of the NOX1 complex; fully differentiated HL-60 cells expressing active NOX2; and UACC257 melanoma cells that exclusively express active NOX5. H2O2 was measured by Amplex Red assay to determine NOX4 or Duox2 activity in fully reconstituted HEK293 cells. The method conducted was similar to the approach disclosed in Jaquet et al in Brit J. Pharmacology 164: 507-520, 2011 using somewhat different cell models for the NOX isoforms and we studied Duox2 in our own cell model.

The next data set concerns the target T4, NOX4 (Homo sapiens, UniProt Q9NPH5).
T4 construct: expressed in transfected cells; host or cells: HEK293
T4 sequence (Q9NPH5 1-578): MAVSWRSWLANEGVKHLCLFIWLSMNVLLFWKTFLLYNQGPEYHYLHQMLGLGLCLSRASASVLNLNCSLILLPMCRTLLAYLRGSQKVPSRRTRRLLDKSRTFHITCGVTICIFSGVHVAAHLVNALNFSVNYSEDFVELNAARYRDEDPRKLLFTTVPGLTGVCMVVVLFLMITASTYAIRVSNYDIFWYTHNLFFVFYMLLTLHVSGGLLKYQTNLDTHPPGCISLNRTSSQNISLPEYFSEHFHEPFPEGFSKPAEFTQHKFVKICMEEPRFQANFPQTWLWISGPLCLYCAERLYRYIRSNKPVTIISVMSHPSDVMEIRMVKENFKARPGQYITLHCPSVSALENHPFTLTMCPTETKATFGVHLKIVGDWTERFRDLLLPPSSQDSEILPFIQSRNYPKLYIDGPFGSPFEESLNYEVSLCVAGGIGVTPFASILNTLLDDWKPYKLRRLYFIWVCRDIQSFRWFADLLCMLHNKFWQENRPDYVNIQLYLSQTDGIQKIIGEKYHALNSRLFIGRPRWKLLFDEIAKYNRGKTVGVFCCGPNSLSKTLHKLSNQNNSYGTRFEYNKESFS
T4 sequence (P13498 2-195 partner limits assumed): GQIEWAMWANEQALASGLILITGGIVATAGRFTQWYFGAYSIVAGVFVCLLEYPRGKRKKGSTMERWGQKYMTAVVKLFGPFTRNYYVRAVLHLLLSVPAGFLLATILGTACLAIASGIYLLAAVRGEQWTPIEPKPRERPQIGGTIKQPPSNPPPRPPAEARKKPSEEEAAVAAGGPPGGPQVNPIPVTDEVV
Briefly: NOX4-dependent H2O2 production, Amplex Red assay in reconstituted HEK293 cells. The note with it: 3-5 independent experiments; exposure for 30 min; read-out: IC50 ± SE, NOX4 HEK293. Format: cell-based. As to the method:
H2O2 was measured by Amplex Red assay to determine NOX4 or Duox2 activity in fully reconstituted HEK293 cells. The method conducted was similar to the approach disclosed in Jaquet et al in Brit J. Pharmacology 164: 507-520, 2011 using somewhat different cell models for the NOX isoforms and we studied Duox2 in our own cell model.

The test system of data set [3] is ROS production in HT-29 human colon cancer cells. Briefly: ROS production in HT-29 cells (chemiluminescence / DCF analytical cytometry). Format: cell-based. The note with it: treatment for 24 hr with 10 nM.
The subject of data set [4] is HT-29 human colon cancer cells. The note with it: Free Rad. Biol. Med. 57: 162-165, 2013; cited from earlier work.
Data set [5] deals with HT-29 human colon cancer cells. Briefly: Growth inhibition of HT-29 cells by MTT assay. The note with it: Homo sapiens, HT-29; 48 hr drug exposure; read-out: IC50, HT-29 human colon cancer cell growth. Format: cell-based. The protocol:
The compounds were analyzed for growth inhibition of HT-29 human colon cancer cells by MTT assay: 48 hr, drug exposures over several orders of concentration. The MTT assay was performed as described in Wu et al J. Immunology 190: 1859-1872, 2013.
On the technique in general: Tetrazolium assays rely on reduction of a dye to a coloured formazan, in cell work by metabolically active cells.

The mark [6] stands for this setting: HT-29, read-out: IC50 (±SE) clonogenic survival, 6 hrs drug exposure, 6 hrs exposure.

SMILES strings stand for the structures.

Take `O=S(=O)([O-])C(F)(F)F.c1csc([I+]c2cccs2)c1` [Compound 3, di-2-thienyliodonium triflate]: the IC50 at NOX5 was 1.2 ± 1.12 µM; in data set [1] (setting [6]), 91.2 ± 58.8 µM; on NOX2, 1.49 ± 0.646 µM; on NOX1/A1/O1, 2.22 ± 1.21 µM; on NOX4, 29.7 ± 41.5 µM. For the same compound, the “IC50 clonogenic survival, 2 hrs drug exposure (result in words)” value in data set [1] (2 hrs exposure) is on record as “No Inhibition”. Also, the “potency compared with parent molecule (DTI)” value in data set [2] is “more potent than its parent molecule”.
With `c1ccc2c(c1)[I+]c1ccccc1-2` [Compound 13, Diphenyleneiodonium chloride, reference compound], in [3], the “ROS production in HT-29 cells” value was “significantly decreased”. The “cytotoxic or cytostatic character” value in data set [1] is given as “cytostatic”. Besides, the “exposure required to inhibit growth / cell reproduction” value in data set [1] was “requires prolonged exposure”. The IC50 was approximately 0.01 µM in data set [1] (HT-29, 240 h, 10 days exposure, read-out: IC50 clonogenic survival, 10 days drug exposure); 9.3 ± 3.9 µM in data set [1] (HT-29, read-out: IC50 (±SE) clonogenic survival, 2 hrs drug exposure, 2 hrs exposure); 0.799 ± 0.18 µM in [1] (setting [6]); 0.3 µM in data set [5]. Further, the “effect on cell cycle progression” value in data set [4] was “only G1 block”.
